Values of other authors in article PMC2714898 (European Journal of Clinical Pharmacology, 2009).

half-life [h] | elimination half-life (t½) (averages, after oral AS) [h] | Compound
60 to 437 | – | CCNCc1cc(Nc2ccnc3cc(Cl)ccc23)ccc1O [Desethylamodiaquine (DEAQ), N-desethylamodiaquine]
– | 0.65 to 2.59 | C[C@H]1[C@@H](O)O[C@@H]2O[C@@]3(C)CC[C@H]4[C@H](C)CC[C@@H]1[C@@]24OO3 [Dihydroartemisinin (DHA), dihydroartemisinin]
